# According to patent publication US20180179198A1, “TRICYCLIC MODULATORS OF TNF SIGNALING” (AbbVie Inc., priority 2015, published 2018):
# Biological target: TNFα trimer (Homo sapiens, UniProt P01375)
# Assay: TNFα FP Competitive Binding Assay
# Details: TNFα FP competitive binding assay; class symbols A/B/C; read-out: TNF IC50
# Procedure, shortened: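 Fluorescence polarization displacement: 20 nM TNFα trimer (60 nM protein) with 1 nM fluorescein-labelled bis-isoquinoline probe in HEPES/NaCl/EDTA/Triton X-100 buffer. 12-point 1:3 compound series, top final 338 μM (3.4% DMSO) or 100 μM (2.0% DMSO); 18-24 h at 37 °C, then 1 h rt before background-subtracted mP read; variable-slope curve fit.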
# TNFα trimer, sequence (P01375 77-233 limits assumed): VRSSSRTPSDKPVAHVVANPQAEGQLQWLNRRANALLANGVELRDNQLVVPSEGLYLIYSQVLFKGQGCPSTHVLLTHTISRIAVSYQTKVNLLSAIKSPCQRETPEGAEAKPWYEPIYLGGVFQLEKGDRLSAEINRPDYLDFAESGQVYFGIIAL
row,SMILES,IC50 [nM]
1,Cc1ncc(-c2ccc3nc4n(c3c2)C(c2ccccc2)COC4)cn1 (centres unmarked) [T.31],1000 to 10000
2,CN1CC[C@H](Oc2cc(-c3ccc4nc5n(c4n3)[C@@H](c3ccccc3)CC5)ccn2)C1 [AQ.8],1000 to 10000
3,c1ccc(C2COCc3nc4ccc(-c5cncnc5)cc4n32)cc1 (centres unmarked) [T.26],10000 to 100000
4,CC(O)C(=O)N1CCN(c2ncc(-c3ccc4nc5n(c4n3)C3(CCc4ccccc43)COC5)cn2)CC1 (centres unmarked) [AV.5],< 1000
5,c1ccc([C@H]2CCc3nc4ccc(-c5ccnc(OC6CCOC6)c5)nc4n32)cc1 (some centres unmarked) [AS.1],1000 to 10000
6,OC1CCN(c2ncc(-c3ccc4nc5n(c4n3)C3(CCOc4ccccc43)COC5)cn2)CC1 (centres unmarked) [BB.2],< 1000
7,COC(=O)C1CCC(Oc2cc(-c3ccc4nc5n(c4n3)[C@@H](c3ccccc3)CC5)ccn2)CC1 (some centres unmarked) [AS.4],1000 to 10000
8,COc1ncc(-c2ccc3nc4n(c3n2)C2(CCOc3ccccc32)COC4)cn1 (centres unmarked) [BA.1],1000 to 10000
9,OC1CC(Nc2ncc(-c3ccc4nc5n(c4n3)C3(COC5)COc4ccccc43)cn2)C1 (centres unmarked) [AU.2],1000 to 10000
10,O=c1cc(-c2ccc3nc4n(c3n2)[C@@H](c2ccccc2)CC4)ccn1C1CCOCC1 [AW.5],10000 to 100000
11,C[C@@H]1CN(C(=O)CO)CCN1c1ncc(-c2ccc3nc4n(c3n2)C2(COC4)COc3ccccc32)cn1 (some centres unmarked) [BH.2],< 1000
12,CN1CCN(c2ccc(-c3ccc4nc5n(c4c3)C(c3ccccc3)COC5)cn2)CC1 (centres unmarked) [T.20],1000 to 10000
13,"COc1cccc([C@H]2CCc3nc4ccc(-c5cnc(N6CCN(C(C)=O)[C@H](C)C6)nc5)nc4n32)c1 [AM.2, 1-((R)-4-(5-((R)-8-(3-methoxyphenyl)-7,8-dihydro-6H-pyrrolo[2′,1′:2,3]imidazo[4,5-b]pyridin-2-yl)pyrimidin-2-yl)-2-methylpiperazin-1-yl)ethanone]",< 1000

# Next, values leading:
row,IC50 [nM],SMILES
1,< 1000,O=C1NC[C@@H]2CN(c3ncc(-c4ccc5nc6c(n5n4)[C@@H](c4ccccc4)COC6)cn3)CCN12 [AF.2]
2,< 1000,CC(C)(O)c1ncc(-c2ccc3nc4n(c3n2)[C@@H](c2ccccc2)COC4)cn1 [AB.2]
3,< 1000,O=C1NCC2CN(c3ncc(-c4ccc5nc6n(c5c4)[C@@H](c4ccccc4Cl)COC6)cn3)CCN12 (some centres unmarked) [AH.3]
4,10000 to 100000,COc1cccc([C@@H]2CCc3nc4ccc(-c5cnc(N6CCN7C(=O)NC[C@@H]7C6)nc5)nc4n32)c1 [AN.1]
5,< 1000,Fc1cccc([C@H]2COCc3nc4ccc(-c5cnc(N6CCOCC6)nc5)cc4n32)c1 [Y.7]
6,10000 to 100000,CC(=O)Nc1ccc(-c2ccc3nc4n(c3c2)C(c2ccccc2)COC4)cn1 (centres unmarked) [T.6]
7,< 1000,O=C1NC[C@@H]2CN(c3ncc(-c4ccc5nc6c(n5c4)[C@@H](c4ccccc4)COC6)cn3)CCN12 [AF.1]
8,1000 to 10000,c1ccc(C2COCc3nc4ccc(-c5cnc(NC6CCCC6)nc5)cc4n32)cc1 (centres unmarked) [T.17]
9,1000 to 10000,CC1(O)CN(c2ncc(-c3ccc4nc5n(c4n3)C3(CCOc4ccccc43)COC5)cn2)C1 (centres unmarked) [BB.7]
10,< 1000,c1ccc2c(c1)OCCC21COCc2nc3ccc(-c4cnc(N5CCOCC5)nc4)nc3n21 (centres unmarked) [BA.6]
11,1000 to 10000,c1ccc(C2COCc3nc4ccc(-c5cnc6nonc6c5)cc4n32)cc1 (centres unmarked) [T.3]
12,1000 to 10000,Cc1ccc(C)c([C@@H]2CCc3nc4ccc(-c5cnc(C(C)(C)O)nc5)cc4n32)c1 [Y.9]
13,< 1000,OC1CCN(c2ncc(-c3ccc4nc5n(c4n3)C3(CCc4ccccc43)COC5)cn2)CC1(F)F (centres unmarked) [AV.4]
14,< 1000,OCC1CCCN(c2ncc(-c3ccc4nc5n(c4n3)C(c3ccccc3)COC5)cn2)C1 (centres unmarked) [AZ.4]
15,1000 to 10000,c1ccc(C2COCc3nc4ccc(-c5cnc6ccoc6c5)cc4n32)cc1 (centres unmarked) [T.29]
16,1000 to 10000,COc1ccccc1[C@@H]1CCCc2nc3ccc(-c4cnc(C(C)(C)O)nc4)cn3c21 [Y.5]

# Same assay, conditions: Table BM; read-out: TNF IC50
row,IC50 [nM],SMILES
1,1000 to 10000,C[C@@H]1CN(c2ncc(-c3ccc4nc5n(c4n3)[C@]3(COC5)COc4ccccc43)cn2)CCN1C(=O)CO [BM.1]

# Same assay, conditions: fluorescence polarization competition; 20 nM TNFα trimer, 1 nM OregonGreen488 probe; read-out: TNF IC50 (TNFα FP binding assay IC50)
row,SMILES,IC50 [nM]
1,c1ccc(C2CCCc3nc4ccc(-c5cnc(N6CCOCC6)nc5)nc4n32)cc1 (centres unmarked) [O.1],< 1000
2,Cc1c(-c2ccc3nc4n(c3c2)C(c2ccccc2)CC4)cnn1C (centres unmarked) [A.28],10000 to 100000
3,OCC1CCCN(c2ncc(-c3ccc4nc5n(c4c3)[C@@H](c3ccccc3)COC5)cn2)C1 (some centres unmarked) [G.4],< 1000
4,CS(=O)(=O)c1cncc(-c2ccc3nc4n(c3c2)C(c2ccccc2)CC4)c1 (centres unmarked) [A.31],10000 to 100000
5,N#CCc1cccc(-c2ccc3nc4n(c3c2)C(c2ccccc2)CC4)c1 (centres unmarked) [A.41],1000 to 10000
6,COCCNC(=O)c1ccc(-c2ccc3nc4n(c3c2)C(c2ccccc2)CC4)cc1 (centres unmarked) [A.39],1000 to 10000
7,"OC1CCN(c2ncc(-c3ccc4nc5n(c4n3)C(c3ccccc3)CC5)cn2)CC1 (centres unmarked) [L.3, 1-(5-(8-phenyl-7,8-dihydro-6H-pyrrolo[2′,1′:2,3]imidazo[4,5-b]pyridin-2-yl)pyrimidin-2-yl)piperidin-4-ol]",< 1000
8,COc1ccc(C2(O)CCCCc3nc4ccc(-c5cnc(N6CCOCC6)nc5)cn4c32)cc1 (centres unmarked) [J.6],1000 to 10000
9,"COc1ccccc1C1CCc2nc3ccc(-c4cnc(N5CCN6C(=O)NCC6C5)nc4)nn3c21 (centres unmarked) [Example 34, 7-(5-(8-(2-Methoxyphenyl)-7,8-dihydro-6H-cyclopenta[4,5]imidazo[1,2-b]pyridazin-2-yl)pyrimidin-2-yl)hexahydroimidazo[1,5-a]pyrazine-3(2H)-one]",< 1000
10,"CC(C)(O)c1ncc(-c2ccc3nc4n(c3n2)C2(CCOc3ccccc32)COC4)cn1 (centres unmarked) [E.5, 2-(5-(6′,8′-Dihydrospiro[chroman-4,9′-pyrido[3′,2′:4,5]imidazo[2,1-c][1,4]oxazin]-2′-yl)pyrimidin-2-yl)propan-2-ol]",1000 to 10000
11,"CC(C)(O)c1ncc(-c2ccc3nc4n(c3c2)C(C2CCOCC2)CC4)cn1 (centres unmarked) [Example 38, 2-(5-(1-(Tetrahydro-2H-pyran-4-yl)-2,3-dihydro-1H-benzo[d]pyrrolo[1,2-a]imidazol-7-yl)pyrimidin-2-yl)propan-2-ol]",10000 to 100000
12,"O=C1NC[C@@H]2CN(c3ncc(-c4ccc5nc6n(c5c4)[C@@H](c4ccccc4)COC6)cn3)CCN12 [Example 26, (R)-7-(5-((S)-4-Phenyl-3,4-dihydro-1H-benzo[4,5]imidazo[2,1-c][1,4]oxazin-7-yl)pyrimidin-2-yl)hexahydroimidazo[1,5-a]pyrazin-3(2H)-one]",< 1000
13,"CC(C)(N)c1ncc(-c2ccc3nc4n(c3n2)C2(CCc3ccccc32)COC4)cn1 (centres unmarked) [Example 80, 2-(5-(2,3-Dihydro-6′H,8′H-spiro[indene-1,9′-pyrido[3′,2′:4,5]imidazo[2,1-c][1,4]oxazin]-2′-yl)pyrimidin-2-yl)propan-2-amine]",< 1000
14,"COc1ccccc1C1CCc2nc3ccc(-c4cnc(C(C)(C)O)nc4)cn3c21 (centres unmarked) [Example 10, 2-(5-(1-(2-Methoxyphenyl)-2,3-dihydro-1H-cyclopenenta[4,5]imidazo[1,2-a]pyridin-7-yl)pyrimidin-2-yl)propan-2-ol]",< 1000

# More lines, now with the values ahead:
row,IC50 [nM],SMILES
1,1000 to 10000,CNC(=O)c1cccc(-c2ccc3nc4n(c3c2)C(c2ccccc2)CC4)c1 (centres unmarked) [A.43]
2,< 1000,"CC(C)(O)c1ncc(-c2ccc3nc4n(c3c2)C(c2ccccc2)CC4)cn1 (centres unmarked) [Example 1, 2-(5-(1-Phenyl-2,3-dihydro-1H-benzo[d]pyrrolo[1,2-a]imidazol-7-yl)pyrimidin-2-yl)propan-2-ol]"
3,< 1000,CC(C)S(=O)(=O)c1ccc(-c2ccc3nc4n(c3c2)C(c2ccccc2)CC4)cc1 (centres unmarked) [A.33]
4,1000 to 10000,O=C1NCNC12CCN(c1ncc(-c3ccc4nc5n(c4c3)[C@@H](c3ccccc3)COC5)cn1)CC2 [G.6]
5,1000 to 10000,CCOc1cncc(-c2ccc3nc4n(c3c2)C(c2ccccc2)CC4)c1 (centres unmarked) [A.15]
6,< 1000,CC1CN(c2ncc(-c3ccc4nc5n(c4c3)[C@@H](c3ccccc3)COC5)cn2)CCO1 (some centres unmarked) [G.2]
7,10000 to 100000,Cn1cc(-c2ccc3nc4n(c3c2)C(c2ccccc2)CC4)ccc1=O (centres unmarked) [A.46]
8,< 1000,OC1CCN(c2ncc(-c3ccc4nc5n(c4n3)C3(CCc4ccccc43)COC5)cn2)CC1 (centres unmarked) [Example 52]
9,< 1000,"OC1CCN(c2ncc(-c3ccc4nc5n(c4c3)[C@@H](c3ccccc3)COC5)cn2)CC1 [Example 4, (S)-1-(5-(4-Phenyl-3,4-dihydro-1H-benzo[4,5]imidazo[2,1-c][1,4]oxazin-7-yl)pyrimidin-2-yl)piperidin-4-ol]"
10,< 1000,N#CCc1ccc(-c2ccc3nc4n(c3c2)C(c2ccccc2)CC4)cc1 (centres unmarked) [A.7]
11,< 1000,"OC1CCC(Oc2cc(-c3ccc4nc5n(c4n3)C3(COC5)COc4ccccc43)ccn2)CC1 (centres unmarked) [Example 54, 4-((4-(6′,8′-dihydro-2H-spiro[benzofuran-3,9′-pyrido[3′,2′:4,5]imidazo[2,1-c][1,4]oxazin]-2′-yl)pyridin-2-yl)oxy)cyclohexanol]"
12,< 1000,"CC(C)(O)c1ncc(-c2ccc3nc4n(c3c2)C(c2ccccc2)CCC4)cn1 (centres unmarked) [E.1, 2-(5-(1-Phenyl-1,2,3,4-tetrahydrobenzo[4,5]imidazo[1,2-a]pyridin-8-yl)pyrimidin-2-yl)propan-2-ol]"
13,1000 to 10000,CC1CN(c2ncc(-c3ccc4nc5n(c4c3)[C@@H](c3ccccc3)COC5)cn2)CC(C)O1 (some centres unmarked) [G.23]
14,< 1000,"OC1CCN(c2ncc(-c3ccc4nc5c(n4n3)C(c3ccccc3)CC5)cn2)CC1 (centres unmarked) [Example 33, 1-(5-(8-Phenyl-7,8-dihydro-6H-cyclopenta[4,5]imidazo[1,2-b]pyridazin-2-yl)pyrimidin-2-yl)piperidin-4-ol]"
15,< 1000,"C[C@@H]1CN(c2ncc(-c3ccc4nc5n(c4n3)[C@@H](c3ccccc3)CC5)cn2)CCN1C(=O)CO [Example 43, 2-Hydroxy-1-((R)-2-methyl-4-(5-((R)-8-phenyl-7,8-dihydro-6H-pyrrolo[2′,1′:2,3]imidazo[4,5-b]pyridin-2-yl)pyrimidin-2-yl)piperazin-1-yl)ethanone]"
